The target in assay [1] is T1, NgTet1 (Naegleria gruberi, UniProt D2W6T1).
T1 construct: His6-tagged full-length Naegleria gruberi NgTet1 (321 a. a.) protein with a thrombin cleavage site; made in house; host or cells: E. coli BL21(DE3)
T1 sequence (D2W6T1 1-321): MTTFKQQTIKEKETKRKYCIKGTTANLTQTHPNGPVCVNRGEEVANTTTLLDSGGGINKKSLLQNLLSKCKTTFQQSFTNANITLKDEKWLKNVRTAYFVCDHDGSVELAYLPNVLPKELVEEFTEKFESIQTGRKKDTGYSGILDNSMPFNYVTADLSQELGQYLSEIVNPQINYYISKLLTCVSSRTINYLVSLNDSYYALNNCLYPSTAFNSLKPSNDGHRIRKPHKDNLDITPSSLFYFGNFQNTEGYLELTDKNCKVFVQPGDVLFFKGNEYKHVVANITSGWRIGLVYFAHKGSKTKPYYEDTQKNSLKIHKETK
Kind of assay: biochemical. The note with it: for potency change in the presence of non-substrate 5HC DNA: uncoupled 2OG turnover; for IC50: 5 μM NgTet1, 50 μM 2OG. How it is done:
(§1) Activity was normalised against reactions containing vehicle (DMSO). […] AS data shown as the mean of three experimental replicates (n = 3; mean ± SD); ^1H NMR data plotted from two independent replicates (n = 2); tabulated data reported as the mean of two and three independent replicates for ^1H NMR and AS, respectively (n = 2–3, SD reported for n = 3). N. d.: not determined; AS: AlphaScreen.
(§2) All ^1H NMR spectra were recorded at 25 °C using D2O as a reference for internal deuterium lock on a Bruker Avance III 700 MHz equipped with an inverse TCI cryoprobe in 3 or 5 mm diameter tubes with a total sample volume of 160 or 565 μL, respectively. The water signal was reduced using Perfect Echo excitation sculpting suppression. Chemical shifts are reported in ppm relative to D2O (δH = 4.70 ppm).
NgTet1 was pre-incubated with inhibitor dilution series in DMSO-d6 at room temperature for 10 min (50 mM Tris-d11 [pH 7.5], 2% v/v DMSO-d6). Reactions were initiated by the addition of appropriate cofactors and DNA. […] The reactions were quenched by the addition of 9 mM NOG and 9 mM ZnCl2 in 90 mM Tris-d11 [pH 7.5] (20 μL) within the enzyme linear activity window (determined in Figure. S10). Samples were transferred to NMR tubes and subjected to ^1H NMR analysis. Data were processed as described above. Inhibition data was normalised to reactions containing vehicle only (1% v/v DMSO-d6) and fitted using “log(inhibitor) vs. response - Variable slope (four parameters)” non-linear regression model on GraphPad Prism 5.
Activity was normalised against reactions containing vehicle only (100% activity). Data is shown as the mean of 2 independent replicates (n = 2; […]
Fig. S10 Determination of linear NgTet1 enzymatic activity windows for inhibitor characterisation. a 1H NMR succinate detection time courses with no DNA, 5HC DNA (double- […]
complementary 5'-ACC AC5mC GGT GGT-3'). b AlphaScreen 5hmC detection time course using […]
courses shown. 1H NMR reaction conditions: 5 μM NgTet1, 2 mM sodium L-ascorbate, 100 μM […]
v/v D2O. DNA was added to a final concentration of 20 μM of double-stranded DNA. […]

In assay [2] the target is T1, NgTet1. Nature of the assay: biochemical. Conditions: for normalised activity, %: AlphaScreen. How it is done: (Fig. 5a), were screened for inhibitory activity against NgTet1.
as §1
Compounds in DMSO (100 nL) were pre-dispensed in a logarithmically linear concentration gradient onto 384-well ProxiPlates using an Echo® 550 acoustic liquid handler (Labcyte). NgTet1 was pre-incubated with the inhibitor dilution series in DMSO at room temperature for 10 min. Reactions were initiated by the addition of appropriate cofactors and DNA. […] The reactions were quenched by the addition of 30 mM EDTA (pH 4.2), 358 mM NaCl (5 μL) within the enzyme linear activity window (determined in Fig. S10). Concurrently, a mixture containing the anti-^5hmC antibody (1:2000 dilution) and AlphaScreen beads (1:62.5 dilution) in assay buffer was prepared and incubated at room temperature for 30 min. The AlphaScreen bead/antibody mixture was added to the quenched NgTet1 reactions (5 μL), and the complete mixture was incubated at room temperature for 1 h. Chemiluminescence was measured on a PHERAstar FS/FSX (BMG Labtech) equipped with an AlphaScreen 680 570 module. All AlphaScreen bead manipulations were performed under subdued lighting. Inhibition data was normalised to reactions containing vehicle only (1% v/v DMSO) and fitted using “log(inhibitor) vs. response—Variable slope (four parameters)” non-linear regression model on GraphPad Prism 5.
(Alpha assays give light when donor and acceptor beads are brought close together.)

Assay [3] concerns the target T1, NgTet1. The format is biochemical. Conditions: for Km: read-out: KM^app (2OG). How it is done:
Double-stranded 12 bp DNA oligomers were added at a final concentration of 20 µM. […]
Double-stranded DNA oligomers were added at a final concentration of 20 µM. […]
as §2
Spectrometer settings were determined using a control sample containing all reaction components excluding enzyme. TET enzyme was added to an identical sample, and the resulting assay mixture was transferred to an NMR tube before deposition into the instrument. […] Spectrum recordings were carried out consecutively without delay. Data were processed using automated routines on MestReNova v14.2.0; signals of interest were integrated with absolute intensity scaling. ^1H NMR time courses reported in figures are representative results from two or three independent replicates.

Where [4] appears, read: 5HC DNA, NMR, -Log[inhibitor] (M) 3.
[5] abbreviates: 5HC DNA, NMR, -Log[inhibitor] (M) 4.
[6] abbreviates: 5HC DNA, NMR, -Log[inhibitor] (M) 4.5.
The mark [7] stands for this setting: 5HC DNA, NMR, -Log[inhibitor] (M) 5.
[8] abbreviates: 5HC DNA, NMR, -Log[inhibitor] (M) 5.5.
[9] abbreviates: 5HC DNA, NMR, -Log[inhibitor] (M) 6.
Setting [10] is: 5HC DNA, NMR, -Log[inhibitor] (M) 6.5.
Where [11] appears, read: 5HC DNA, NMR, -Log[inhibitor] (M) 7.
Where [12] appears, read: 5HC DNA, NMR, -Log[inhibitor] (M) 7.5.
Where [13] appears, read: IC50, 5mC DNA, NMR, 2OG decarboxylation with 20 µM 5mC DNA.
Setting [14] is: IC50, No DNA, NMR, uncoupled 2OG decarboxylation, no DNA.

SMILES strings stand for the structures. Where “and” joins values, the source holds several entries; their conditions need not be identical. Equal values may be shown once. Read-outs that look alike come from different tables or passages of the source.

In general, IC50 refers to the concentration that inhibits the measured activity by half. `O=C(O)c1ccc(O)c2ncccc12` [IOX1, 5-carboxy-8-hydroxyquinoline]: on NgTet1 [1] (1H NMR), the “potency change in the presence of non-substrate 5HC DNA” value is under 2 fold. The “normalised activity, %” value at NgTet1 [1] (setting [4]) is 3.36% and 6.05%; at NgTet1 [1] (setting [5]), 65.88% and 69.85%; on NgTet1 [1] (setting [6]), 102.42% and 107.78%; on NgTet1 [1] (setting [7]), 115.52% and 112.71%; on NgTet1 [1] (setting [8]), 111.12% and 108.5%; on NgTet1 [1] (setting [9]), 104.59% and 105.6%. Further, the “normalised activity, %” value on NgTet1 [1] (setting [10]) was 111.93% and 98%; at NgTet1 [1] (setting [11]), 104.59% and 103.37%; at NgTet1 [1] (setting [12]), 102.45% and 101.86%; at NgTet1 [2] (-Log[inhibitor] (M) 4.00432), -0.5677% and -0.5665% and -1.091%; at NgTet1 [2] (-Log[inhibitor] (M) 4.5272), 43.4249% and 52.8284% and 51.0837%; at NgTet1 [2] (-Log[inhibitor] (M) 5.00432), 78.4888% and 85.3739% and 75.186%. Also, the “normalised activity, %” value is 80.6565% and 92.476% and 89.0303% at NgTet1 [2] (-Log[inhibitor] (M) 5.60638); 91.4843% and 93.7065% and 96.6507% at NgTet1 [2] (-Log[inhibitor] (M) 6.0945); 100.743% and 110.536% and 100.94% on NgTet1 [2] (-Log[inhibitor] (M) 6.61738); 88.4496% and 111.251% and 97.2074% at NgTet1 [2] (-Log[inhibitor] (M) 7.0945); 87.9129% and 106.34% and 94.3692% at NgTet1 [2] (-Log[inhibitor] (M) 7.69656); 99.4426% and 116.115% and 101.926% on NgTet1 [2] (-Log[inhibitor] (M) 8.20844). For the same compound, the “normalised activity, %” value on NgTet1 [2] (-Log[inhibitor] (M) 8.73132) was 100% and 102.574%. Further, the “potency decreased relative to AS assay” value at NgTet1 [1] (5mC DNA substrate-saturating conditions, 1H NMR) amounted to 5 fold. Also, the IC50 on NgTet1 [1] (IC50, 5HC DNA, NMR, 2OG decarboxylation with 20 µM 5HC DNA) came to 110 µM; against NgTet1 [1] (setting [13]), 123 µM; on NgTet1 [1] (setting [14]), 57.5 µM; against NgTet1 [2] it was 26.3 µM.

For `O=C(O)c1ccnc(C(=O)O)c1` [2,4-PDCA, 2,4-pyridinedicarboxylic acid], on NgTet1 [1] (1H NMR), the “potency change in the presence of non-substrate 5HC DNA” value was under 2 fold. For the same compound, the IC50 on NgTet1 [1] (2OG decarboxylation with 20 µM 5HC DNA, read-out: IC50, 5HC DNA, NMR) amounted to 4.27 µM; on NgTet1 [1] (setting [13]) it was 2.45 µM; at NgTet1 [1] (setting [14]), 8.13 µM; at NgTet1 [2] (read-out: IC50, 5mC ssDNA, AS), 3.24 µM. The “normalised activity, %” value on NgTet1 [1] (setting [4]) was -0.17% and 2.97%; at NgTet1 [1] (5HC DNA, NMR, -Log[inhibitor] (M) 3.5), 6.05%; at NgTet1 [1] (setting [5]), 6.05% and 7.57%; on NgTet1 [1] (setting [6]), 13.51%; at NgTet1 [1] (setting [7]), 30.08%; at NgTet1 [1] (setting [8]), 63.79% and 61.71%. For the same compound, the “normalised activity, %” value was 84.73% and 86.47% at NgTet1 [1] (setting [9]); 94.82% and 93.19% on NgTet1 [1] (setting [10]); 100.33% at NgTet1 [1] (setting [11]); 99.56% and 98% at NgTet1 [1] (setting [12]); 1.811% and 1.747% at NgTet1 [1] (5mC DNA, NMR, 2,4-PDCA series -Log[inhibitor] (M) 3); 1.338% and 1.107% on NgTet1 [1] (5mC DNA, NMR, -Log[inhibitor] (M) 3.47712). Moreover, the “normalised activity, %” value on NgTet1 [1] (5mC DNA, NMR, -Log[inhibitor] (M) 3.95424) was 2.094% and 0.5576%; on NgTet1 [1] (5mC DNA, NMR, -Log[inhibitor] (M) 4.43136), 2.845% and 5.31%; on NgTet1 [1] (5mC DNA, NMR, -Log[inhibitor] (M) 4.90848), 7.1385% and 9.765%; on NgTet1 [1] (5mC DNA, NMR, -Log[inhibitor] (M) 5.38561), 30.9766% and 31.0028%; at NgTet1 [1] (5mC DNA, NMR, -Log[inhibitor] (M) 5.86273) it was 71.7609% and 72.2416%; on NgTet1 [1] (5mC DNA, NMR, -Log[inhibitor] (M) 6.33985), 92.2674% and 93.2727%. The “normalised activity, %” value on NgTet1 [1] (5mC DNA, NMR, -Log[inhibitor] (M) 6.81697) was 96.6317% and 94.5918%; at NgTet1 [1] (5mC DNA, NMR, -Log[inhibitor] (M) 7.29409), 100.253% and 99.2143%; at NgTet1 [1] (No DNA, NMR, -Log[inhibitor] (M) 3), 1.858% and 5.513%; at NgTet1 [1] (No DNA, NMR, -Log[inhibitor] (M) 3.47712) it was 5.794% and 4.915%; at NgTet1 [1] (No DNA, NMR, -Log[inhibitor] (M) 3.95424) it was 6.819% and 9.688%; at NgTet1 [1] (No DNA, NMR, -Log[inhibitor] (M) 4.43136), 23.271% and 23.2057%. Moreover, the “normalised activity, %” value at NgTet1 [1] (No DNA, NMR, -Log[inhibitor] (M) 4.90848) is 39.7721% and 42.1215%; on NgTet1 [1] (No DNA, NMR, -Log[inhibitor] (M) 5.38561), 73.0359% and 62.1963%; on NgTet1 [1] (No DNA, NMR, -Log[inhibitor] (M) 5.86273), 95.5986% and 84.3948%; on NgTet1 [1] (No DNA, NMR, -Log[inhibitor] (M) 6.33985), 102.544% and 92.4597%; on NgTet1 [1] (No DNA, NMR, -Log[inhibitor] (M) 6.81697), 101.45% and 102.432%; at NgTet1 [1] (No DNA, NMR, -Log[inhibitor] (M) 7.29409) it was 100.407% and 97.5514%. The “normalised activity, %” value on NgTet1 [2] (-Log[inhibitor] (M) 8.03235) is 118.908% and 105.933% and 106.512% and 100% and 103.458% and 100.779% and 97.3678%.

The term Km denotes the substrate concentration at which the rate is half of its maximum. In the case of `O=C(O)CCC(=O)C(=O)O` [2OG, 2-oxoglutarate], the “decrease of 2OG KM^app on substrate saturation” value on NgTet1 [3] (20 µM 5mC DNA vs no DNA) is on record as about 2 fold. On NgTet1 [3] (No DNA), the “Vmax^app” value amounted to 2.83 µM/min and the “kcat^app” value turned out to be 0.0095 s⁻¹. The Michaelis-Menten constant (Km) on NgTet1 [3] (No DNA, 5 μM NgTet1) is 284 µM. Further, at NgTet1 [3] (with 20 µM 5mC DNA), the Km came out at 150 µM and the “Vmax^app” value is 8.31 µM/min.

For the origin of these results see PMC11662004 (Communications Chemistry, 2024).
